Assay results reported in patent US20070021355A1, “Antidepressants or foods and beverage for antidepression” (priority 2003, published 2007).

Legend:
Format in all cases: in vivo
[1] = test system: reserpine-administered mice; experiment: Action on reserpine-induced temperature drop (body temperature); conditions: for Body temperature: male ddY mice, reserpine 2 mg/kg s.c., 100 mg/kg i.p. once per day for two days, mean ± standard error
Experimental: (§1) Male ddY mice (4 weeks old) were subcutaneously administered reserpine (2 mg/kg) (Apoplon injection 1 mg, product of Daiichi Pharmaceutical Co., Ltd.). These mice were divided into two groups: one to which Compound 1 (100 mg/kg) was intraperitoneally administered once per day for two days (reserpine+Compound 1-administered group) and the other to which only a solvent was administered (reserpine+solvent-administered group). Reserpine and Compound 1 were administered after being dissolved in a physiological saline. The body temperature of the mice was measured 0.5, 1, 3 and 6 hours after the last administration. Separately, a solvent was administered to another group of mice without reserpine administration.

[2] = test system: 5-HT and 5-HIAA in the hypothalamus of mice; experiment: Action on the amount of amine in the brain (5-HT and 5-HIAA in the hypothalamus); conditions: 100 mg/kg i.p.
Experimental: Male ddY mice (4 weeks old) were intraperitoneally administered Compound 1 (100 mg/kg) (Compound 1-administered group) and their brains were excised 30 and 60 minutes after the administration to measure the amounts of serotonin (5-HT) and its metabolite 5-hydroxyindole-3-acetic acid (5-HIAA) in the hypothalamus. Compound 1 was administered after being dissolved in a physiological saline. Separately, another group of mice was administered only a solvent (solvent-administered group) and the amounts of 5-HT and 5-HIAA were measured in the same manner.

[3] = test system: reserpine-administered mice; experiment: Action on reserpine-induced blepharoptosis; conditions: for Blepharoptosis score: score 1 completely opened to 5 completely closed, reserpine 2 mg/kg s.c., 100 mg/kg i.p. once per day for two days, mean ± standard error
Experimental: as §1, with “The level” for “The body temperature”, “of blepharoptosis” for “of the mice”, “was scored” for “was measured”, “last administration (score 1: completely opened, score 2: ¼ closed, score 3: ½ closed, score 4: ¾ closed, and score 5: completely closed).” for “last administration.”

[4] = test system: reserpine-administered mice; experiment: Action on reserpine-induced drop in the quantity of spontaneous motion
Experimental: Male ddY mice (4 weeks old) were subcutaneously administered reserpine (2 mg/kg) (Apoplon injection 1 mg, product of Daiichi Pharmaceutical Co., Ltd.). These mice were divided into two groups: one to which Compound 1 (100 mg/kg) was intraperitoneally administered once per day for four days (reserpine+Compound 1-administered group) and the other to which only a solvent was administered (reserpine+solvent-administered group). Reserpine and Compound 1 were administered after being dissolved in a physiological saline. After the last administration, the mice were immediately put into breeding cages equipped with an infrared beam sensor (NS-AS01, Neuroscience, Inc.). After the last administration, the quantity of spontaneous motion in each 30-minute period was measured for 360 minutes with an infrared beam sensor device for measuring the quantity of spontaneous motion (AB system, Neuroscience, Inc.) and the measured values were summed up on a specific purpose computer via an interface (B060CT8H06, Neuroscience, Inc). Separately, another group of mice which was administered no reserpine was tested.

[5] = test system: mice fed with a vitamin B deficient food; experiment: Action on depressive behavior induced by vitamin B deficient food (swimming patterns)
Experimental: Male ddY mice (3 weeks old) were fed with a feed deficient in vitamin B1, vitamin B12 and folic acid for 8 days and then divided into two groups: one to which Compound 1 (100 mg/kg) was intraperitoneally administered once per day for 11 days (vitamin deficient food+Compound 1-administered group) and the other to which only a solvent was administered (vitamin deficient food+solvent-administered group). Compound 1 was administered after being dissolved in a physiological saline. Two hours after the last administration, the mice were put in a plastic cylindrical tub (diameter: 18 cm, height: 40 cm, water depth: 15 cm, water temperature: ca. 23° C.), followed by measurement of the time of their struggle, swimming and immobility in 10 minutes. Separately, another group of mice fed with a normal food was tested.

[6] = 30 minute after last administration
[7] = 60 minute after last administration
[8] = 180 minute after last administration
[9] = 360 minute after last administration
[10] = male ddY mice, brains excised 30 and 60 minutes after administration, mean ± standard error
[11] = vitamin B deficient food, 100 mg/kg i.p. once per day for 11 days, two hours after last administration, time in 10 minutes, mean ± standard error

For `NC(Cc1c([C@@H]2O[C@@H](CO)[C@H](O)[C@@H](O)[C@H]2O)[nH]c2ccccc12)C(=O)O` (stereo partly drawn) [Compound 1, 2-amino-3-[2-(α-L-mannopyranosyl]indol-3-yl]propionic acid], the “Effect on body temperature of reserpine-administered mice (in words)” value ([1]; 100 mg/kg i.p.) was “significantly raised the body temperature”, the Body temperature [1, 6] was “***36.1 ± 0.2 °C” and the Body temperature [1, 7] was “** 35.4 ± 0.1 °C”. The Body temperature [1, 8] was “** 35.2 ± 0.3 °C”, the Body temperature [1, 9] was “** 34.9 ± 0.4 °C” and the “Effect on contents of 5-HT and 5-HIAA in the hypothalamus (in words)” value [2] was “increased the contents of 5-HT and 5-HIAA”. The “Content of 5-HIAA in the hypothalamus” value [2, 10] was 374.1 ± 26.7 ng/g wet weight, the “Content of 5-HT in the hypothalamus” value [2, 10] was 815.0 ± 39.1 ng/g wet weight and the “Effect on reserpine-induced blepharoptosis (in words)” value ([3]; 100 mg/kg i.p.) was “showed the action to improve the condition”. The Blepharoptosis score [3, 6] was “***3.0 ± 0.4”, the Blepharoptosis score [3, 7] was “** 3.1 ± 0.3” and the Blepharoptosis score [3, 8] was “** 3.3 ± 0.3”. The Blepharoptosis score [3, 9] was “** 3.3 ± 0.2”, the “Effect on reserpine-induced drop in quantity of spontaneous motion (in words)” value ([4]; 100 mg/kg i.p.) was “showed the action to increase the quantity of spontaneous motion” and the “Quantity of spontaneous motion in 360 minutes” value ([4]; reserpine 2 mg/kg s.c., 100 mg/kg i.p. once per day for four days, infrared beam sensor, mean ± standard error) was 2464.2 ± 594.6 count. The “Effect on struggle, swimming and immobility time of mice on vitamin B deficient food (in words)” value ([5]; 100 mg/kg i.p.) was “improved these actions”, the “Swimming pattern: Immobility” value [5, 11] was “***35.6 ± 15.4 second” and the “Swimming pattern: Struggle” value [5, 11] was “***2.4 ± 2.4 second”. For the same compound, the “Swimming pattern: Swimming” value [5, 11] was “***562.0 ± 14.2 second”.
